Experimental data taken from patent US9611251B2, “Substituted piperidine compounds and their use as orexin receptor modulators” (Janssen Pharmaceutica NV, priority 2013, dated 2017).

What was measured:
rat orexin 1 receptor = rat orexin 1 receptor (Rattus norvegicus, UniProt P56718); experiment: Rat orexin 1 receptor radioligand binding; settings: rat orexin 1 receptor radioligand binding; averages of 2-20 runs; read-out: rOX1 Ki
How it was run: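 Cell-suspension competition binding used 4 nM final tritiated thiazolyl-pyrrolidinyl-methanone radioligand in PBS, ≤0.1% DMSO, with 10 µM almorexant defining nonspecific binding. Filter-bound radioactivity was counted in triplicate. IC50 came from one-site competition fits and was converted to Ki using the predetermined Kd.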

human orexin 2 receptor = human orexin 2 receptor (Homo sapiens (Human), UniProt O43614); experiment: Human orexin 2 receptor radioligand binding ([3H]-EMPA); settings: averages of 2-20 runs, read-out: hOX2 Ki
human orexin 2 receptor, sequence (O43614 whole entry): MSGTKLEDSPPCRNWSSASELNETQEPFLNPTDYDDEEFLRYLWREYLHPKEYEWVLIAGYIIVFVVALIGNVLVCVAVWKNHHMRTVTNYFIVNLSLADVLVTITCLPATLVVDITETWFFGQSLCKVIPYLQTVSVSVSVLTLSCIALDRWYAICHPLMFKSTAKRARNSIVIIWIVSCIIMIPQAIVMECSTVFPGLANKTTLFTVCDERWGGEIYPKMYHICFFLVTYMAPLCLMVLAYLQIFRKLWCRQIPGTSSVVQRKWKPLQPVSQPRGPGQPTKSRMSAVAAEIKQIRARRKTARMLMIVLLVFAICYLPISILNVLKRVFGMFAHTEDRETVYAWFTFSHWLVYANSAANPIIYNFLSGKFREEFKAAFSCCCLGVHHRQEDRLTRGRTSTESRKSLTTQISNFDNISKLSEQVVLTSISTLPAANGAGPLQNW
How it was run: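 Competition binding using homogenized HEK293 cells stably expressing human orexin 2 receptor, [3H]-EMPA at 2 nM final and ≤0.1% DMSO; nonspecific binding set with 10 μM almorexant. Filter-bound radioactivity counted by scintillation; one-site competition IC50 converted to Ki using pre-determined Kd, compounds run in triplicate.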

human orexin 1 receptor = human orexin 1 receptor (Homo sapiens, UniProt O43613); experiment: Human orexin 1 receptor radioligand binding; settings: human orexin 1 receptor radioligand binding; averages of 2-20 runs; read-out: hOX1 Ki

SMILES | Ki (rat orexin 1 receptor) [µM] | Ki (human orexin 2 receptor) [µM] | Ki (human orexin 1 receptor) [µM]
C[C@H]1[C@H](Oc2ncc(C(F)(F)F)cn2)CCCN1C(=O)c1ccccc1-c1ncc(F)cn1 [Example 165, (2-(5-fluoropyrimidin-2-yl)phenyl)((2S,3R)-2-methyl-3-((5-(trifluoromethyl)pyrimidin-2-yl)oxy)piperidin-1-yl)methanone] | 0.059 | 4.4 | 0.077
C[C@H]1[C@H](Oc2cnc(C(F)(F)F)cn2)CCCN1C(=O)c1ccccc1-c1ncc(F)cn1 [Example 166, (2-(5-fluoropyrimidin-2-yl)phenyl)((2S,3R)-2-methyl-3-((5-(trifluoromethyl)pyrazin-2-yl)oxy)piperidin-1-yl)methanone] | 0.097 | 3.1 | 0.124
Cc1cccc(C(=O)N2CCC[C@@H](Oc3ncc(C(F)(F)F)cn3)[C@@H]2C)c1-c1ncccn1 [Example 167, (3-methyl-2-(pyrimidin-2-yl)phenyl)((2S,3R)-2-methyl-3-((5-(trifluoromethyl)pyrimidin-2-yl)oxy)piperidin-1-yl)methanone] | 0.03 | 1.8 | 0.028
C[C@H]1[C@H](Oc2cnc(C(F)(F)F)cn2)CCCN1C(=O)c1ccccc1-c1ncccn1 [Example 168, ((2S,3R)-2-methyl-3-((5-(trifluoromethyl)pyrazin-2-yl)oxy)piperidin-1-yl)(2-(pyrimidin-2-yl)phenyl)methanone] | 0.029 | 0.951 | 0.025
C[C@H]1[C@H](Oc2ncc(C(F)(F)F)cn2)CCCN1C(=O)c1ccccc1-c1ncccn1 [Example 169, ((2S,3R)-2-methyl-3-((5-(trifluoromethyl)pyrimidin-2-yl)oxy)piperidin-1-yl)(2-(pyrimidin-2-yl)phenyl)methanone] | 0.032 | 1.2 | 0.023
Cc1cccc(C(=O)N2CCC[C@@H](Oc3ncc(C(F)(F)F)cn3)[C@@H]2C)c1-c1ncc(F)cn1 [Example 170, (2-(5-fluoropyrimidin-2-yl)-3-methylphenyl)((2S,3R)-2-methyl-3-((5-(trifluoromethyl)pyrimidin-2-yl)oxy)piperidin-1-yl)methanone] | 0.048 | 2.8 | 0.049
Cc1cccc(C(=O)N2CCC[C@@H](Oc3cnc(C(F)(F)F)cn3)[C@@H]2C)c1-c1ncccn1 [Example 171, (3-methyl-2-(pyrimidin-2-yl)phenyl)((2S,3R)-2-methyl-3-((5-(trifluoromethyl)pyrazin-2-yl)oxy)piperidin-1-yl)methanone] | 0.034 | 1.1 | 0.029
C[C@H]1[C@H](Oc2ncc(C(F)(F)F)cn2)CCCN1C(=O)c1cc(F)ccc1-c1ncco1 [Example 175, (5-fluoro-2-(oxazol-2-yl)phenyl)((2S,3R)-2-methyl-3-((5-(trifluoromethyl)pyrimidin-2-yl)oxy)piperidin-1-yl)methanone] | 0.124 | 4.4 | 0.188
Cc1cnc(-n2nccn2)c(C(=O)N2CCC[C@@H](Oc3cnc(C(F)(F)F)cn3)[C@@H]2C)c1 [Example 177, (5-methyl-2-(2H-1,2,3-triazol-2-yl)pyridin-3-yl)((2S,3R)-2-methyl-3-((5-(trifluoromethyl)pyrazin-2-yl)oxy)piperidin-1-yl)methanone] | 0.238 | > 10 | 0.166
C[C@H]1[C@H](Oc2cnc(C(F)(F)F)cn2)CCCN1C(=O)c1cc(F)ccc1-c1ncco1 [Example 179, (5-fluoro-2-(oxazol-2-yl)phenyl)((2S,3R)-2-methyl-3-((5-(trifluoromethyl)pyrazin-2-yl)oxy)piperidin-1-yl)methanone] | 0.1 | 1.9 | 0.068
Cc1cnc(-c2ncccn2)c(C(=O)N2CCC[C@@H](Oc3ccc(C(F)(F)F)cn3)[C@@H]2C)c1 [Example 211, (5-methyl-2-(pyrimidin-2-yl)pyridin-3-yl)((2S,3R)-2-methyl-3-((5-(trifluoromethyl)pyridin-2-yl)oxy)piperidin-1-yl)methanone] | 0.12 | > 10 | 0.124
C[C@H]1[C@H](Oc2ccc(C(F)(F)F)cn2)CCCN1C(=O)c1c(F)cccc1-c1ncccn1 [Example 212, (2-fluoro-6-(pyrimidin-2-yl)phenyl)((2S,3R)-2-methyl-3-((5-(trifluoromethyl)pyridin-2-yl)oxy)piperidin-1-yl)methanone] | 0.045 | 0.915 | 0.132
Cc1ccc(-c2ncccn2)c(C(=O)N2CCC[C@@H](Oc3ccc(C(F)(F)F)cn3)[C@@H]2C)n1 [Example 213, ((2S,3R)-2-methyl-3-((5-(trifluoromethyl)pyridin-2-yl)oxy)piperidin-1-yl)(6-methyl-3-(pyrimidin-2-yl)pyridin-2-yl)methanone] | 0.023 | 0.217 | 0.068
Cc1cnc(-n2nccn2)c(C(=O)N2CCC[C@@H](Oc3ccc(Cl)cn3)[C@@H]2C)c1 [Example 214, ((2S,3R)-3-((5-chloropyridin-2-yl)oxy)-2-methylpiperidin-1-yl)(5-methyl-2-(2H-1,2,3-triazol-2-yl)pyridin-3-yl)methanone] | 0.038 | 5.4 | 0.078
Cc1ccc(-n2nccn2)c(C(=O)N2CCC[C@@H](Oc3ccc(Cl)cn3)[C@@H]2C)n1 [Example 215, ((2S,3R)-3-((5-chloropyridin-2-yl)oxy)-2-methylpiperidin-1-yl)(6-methyl-3-(2H-1,2,3-triazol-2-yl)pyridin-2-yl)methanone] | 0.012 | 0.374 | 0.035
Cc1cnc(C(=O)N2CCC[C@@H](Oc3ccc(Cl)cn3)[C@@H]2C)c(-c2ncccn2)c1 [Example 216, ((2S,3R)-3-((5-chloropyridin-2-yl)oxy)-2-methylpiperidin-1-yl)(5-methyl-3-(pyrimidin-2-yl)pyridin-2-yl)methanone] | 0.052 | 8.2 | 0.089
Cc1cnc(-c2ncccn2)c(C(=O)N2CCC[C@@H](Oc3ccc(Cl)cn3)[C@@H]2C)c1 [Example 217, ((2S,3R)-3-((5-chloropyridin-2-yl)oxy)-2-methylpiperidin-1-yl)(5-methyl-2-(pyrimidin-2-yl)pyridin-3-yl)methanone] | 0.177 | 8.9 | 0.154
C[C@H]1[C@H](Oc2ccc(Cl)cn2)CCCN1C(=O)c1ncccc1-c1ncccn1 [Example 218, ((2S,3R)-3-((5-chloropyridin-2-yl)oxy)-2-methylpiperidin-1-yl)(3-(pyrimidin-2-yl)pyridin-2-yl)methanone] | 0.026 | 0.495 | 0.029
CCOc1ccc(C)nc1C(=O)N1CCC[C@@H](Oc2ccc(C(F)(F)F)cn2)[C@@H]1C [Example 219, (3-ethoxy-6-methylpyridin-2-yl)((2S,3R)-2-methyl-3-((5-(trifluoromethyl)pyridin-2-yl)oxy)piperidin-1-yl)methanone] | 0.051 | 1.3 | 0.055
Cc1cccc(C(=O)N2CCC[C@@H](Oc3ncc(C(F)(F)F)cc3F)[C@@H]2C)c1-c1ncccn1 [Example 220, ((2S,3R)-3-((3-fluoro-5-(trifluoromethyl)pyridin-2-yl)oxy)-2-methylpiperidin-1-yl)(3-methyl-2-(pyrimidin-2-yl)phenyl)methanone] | 0.023 | 0.393 | 0.025
C[C@H]1[C@H](Oc2ncc(C(F)(F)F)cc2F)CCCN1C(=O)c1cc(F)ccc1-c1ncccn1 [Example 221, (5-fluoro-2-(pyrimidin-2-yl)phenyl)((2S,3R)-3-((3-fluoro-5-(trifluoromethyl)pyridin-2-yl)oxy)-2-methylpiperidin-1-yl)methanone] | 0.032 | 0.533 | 0.044
C[C@H]1[C@H](Oc2ncc(C(F)(F)F)cc2F)CCCN1C(=O)c1ccc(F)cc1-c1ncccn1 [Example 222, (4-fluoro-2-(pyrimidin-2-yl)phenyl)((2S,3R)-3-((3-fluoro-5-(trifluoromethyl)pyridin-2-yl)oxy)-2-methylpiperidin-1-yl)methanone] | 0.055 | 1.3 | 0.091
Cc1ccc(-c2ncccn2)c(C(=O)N2CCC[C@@H](Oc3ncc(C(F)(F)F)cc3F)[C@@H]2C)n1 [Example 223, ((2S,3R)-3-((3-fluoro-5-(trifluoromethyl)pyridin-2-yl)oxy)-2-methylpiperidin-1-yl)(6-methyl-3-(pyrimidin-2-yl)pyridin-2-yl)methanone] | 0.035 | 0.37 | 0.045
C[C@H]1[C@H](Oc2ncc(C(F)(F)F)cc2F)CCCN1C(=O)c1ccccc1-n1nccn1 [Example 224, (2-(2H-1,2,3-triazol-2-yl)phenyl)((2S,3R)-3-((3-fluoro-5-(trifluoromethyl)pyridin-2-yl)oxy)-2-methylpiperidin-1-yl)methanone] | 0.033 | 0.576 | 0.047
